A short description of series [1]: 1-Octanol-sodium phosphate buffer distribution coefficient, log D of the compound at pH 7.4. To be noted: 1-octanol/sodium phosphate buffer, read-out: logD. The series is classed as physicochemical.
Series [2] relates to MV4-11. Briefly: Antitumor activity against human MV4-11 cells xenografted in nude BALB/c mouse assessed as tumor growth inhibition at 25 mg/kg, po qd for 21 days measured on day 21. To be noted: MV4-11, 504 h, read-out: TGI. The series is classed as functional.
Series [3] deals with MV4-11. As to the kind of experiment: Antitumor activity against human MV4-11 cells xenografted in nude BALB/c mouse assessed as tumor growth inhibition at 50 mg/kg, po qd for 21 days measured on day 21. The series is classed as functional. The following applies: MV4-11, 504 h, read-out: TGI. A general note: A xenograft is tissue or cells of one species grown in another, often human tumour cells in immunodeficient mice.

Series [4] in a line: Apparent permeability from apical to basolateral side of human Caco2 cells. The series is classed as ADME, cell-based. The following applies: Caco-2.
Series [5] concerns Mus musculus. Briefly: Toxicity in nude BALB/c mouse xenografted with human HCT116 cells assessed as mouse survival at 200 mg/kg, po QD for 21 days measured on day 22. The following applies: in vivo, 504 h. The series is classed as organism-based, HCT-116. More on the design: dose 200 mg/kg, route oral.
The test system of series [6] is Mus musculus. As to the kind of experiment: Toxicity in nude BALB/c mouse xenografted with human A2780 cells assessed as maximum body weight loss at 100 mg/kg, po QD for 21 days measured on day 20. The series is classed as organism-based. More on the design: dose 100 mg/kg, route oral. The following applies: in vivo, 504 h.
For series [7], the system named is Mus musculus. Briefly: Toxicity in nude BALB/c mouse xenografted with human HCT116 cells assessed as body weight loss at 100 mg/kg, po QD for 21 days measured on day 19. The series is classed as organism-based, HCT-116. More on the design: dose 100 mg/kg, route oral. The following applies: in vivo, 504 h.
The subject of series [8] is HCT-116. Briefly: Antitumor activity against human HCT116 cells xenografted in nude BALB/c mouse assessed as tumor growth inhibition at 100 mg/kg, po qd for 21 days measured on day 15 measured on day 15. To be noted: read-out: TGI. The series is classed as functional.
Series [9] can be described thus: Tmax in Wistar rat at 10 mg/kg, po. The series is classed as ADME, organism-based. More on the design: dose 10 mg/kg, route oral. The following applies: in vivo.
The subject of the next series is A2780. Briefly: Antitumor activity against human A2780 cells xenografted in nude BALB/c mouse assessed as tumor growth inhibition at 100 mg/kg, po qd for 21 days measured on day 9. To be noted: read-out: TGI. The series is classed as functional.
Series [10] has as its system Mus musculus. Briefly: Toxicity in nude BALB/c mouse xenografted with human MV4-11 cells assessed as mortality at 25 mg/kg, po QD for 21 days measured on day 21. The series is classed as organism-based. More on the design: dose 25 mg/kg, route oral. To be noted: in vivo, 504 h.
Series [11] concerns HCT-116. As to the kind of experiment: Antitumor activity against human HCT116 cells xenografted in nude BALB/c mouse assessed as tumor growth inhibition at 100 mg/kg, po qd for 21 days. The series is classed as functional. To be noted: HCT-116, 504 h, read-out: TGI.

With `CCCCc1nc2cc(/C=C/C(=O)NO)ccc2n1CCN(CC)CC.Cl.Cl`, the pH-dependent lipophilicity (logD) – broadly, the decadic logarithm of the distribution of all forms, ionised or not, between an organic phase and buffer at a given pH – in series [1] is 2.07. The inhibition in vivo at 25 mg/kg in the series on MV4-11 [2] came out at 61%. Also, in the series with MV4-11 [3], the inhibition in vivo at 50 mg/kg worked out at 114%. Besides, in series [4], the Papp A→B (as a rule, how fast a substance crosses the layer from the apical side) is 7.04 ×10⁻⁶ cm/s. For the same compound, the Activity result in the series with Mus musculus [5] is listed as “Toxic”; with Mus musculus [6], 20%; with Mus musculus [7], 14.6%; with Mus musculus [10] it was “Non-toxic”. The inhibition in vivo at 100 mg/kg was 97% with HCT-116 [8], 63% in the series on A2780 and 90% in the series on HCT-116 [11]. In addition, the Tmax (as a rule, the time at which the peak concentration occurs) in series [9] amounted to 14.4 min.
